Test results reported in patent US20020193320A1, “C-2 modified erythromycin derivatives” (priority 1999, published 2002).

How the values were obtained:
Experiment in all cases: In vitro antibacterial activity, agar dilution MIC
Type in all cases: cell-based
Candida albicans CCH 442 = system: Candida albicans CCH 442; parameters: unit not given here; conditions: code TT, BHI agar, 35-37° C., 20 to 24 hours
Procedure: (§1) Representative compounds of the present invention were assayed in vitro for antibacterial activity as follows: Twelve petri dishes containing successive aqueous dilutions of the test compound mixed with 10 mL of sterilized Brain Heart Infusion (BHI) agar (Difco 0418-01-5) were prepared. Each plate was inoculated with 1:100 (or 1:10 for slow-growing strains, such as Micrococcus and Streptococcus) dilutions of up to 32 different microorganisms, using a Steers replicator block. The inoculated plates were incubated at 35-37° C. for 20 to 24 hours. In addition, a control plate, using BHI agar containing no test compound, was prepared and incubated at the beginning and end of each test.
(§2) An additional plate containing a compound having known susceptibility patterns for the organisms being tested and belonging to the same antibiotic class as the test compound was also prepared and incubated as a further control, as well as to provide test-to-test comparability.
(§3) After incubation, each plate was visually inspected. The minimum inhibitory concentration (MIC) was defined as the lowest concentration of drug yielding no growth, a slight haze, or sparsely isolated colonies on the inoculum spot as compared to the growth control.

[1] = system: Enterococcus faecium ATCC X043; parameters: unit not given here; conditions: code II, BHI agar, 35-37° C., 20 to 24 hours
Procedure: as §1, §2, §3

Escherichia coli DC-2 = system: Escherichia coli DC-2; parameters: unit not given here; conditions: code SS, BHI agar, 35-37° C., 20 to 24 hours
Procedure: as §1, §2, §3

Escherichia coli JUHL = system: Escherichia coli JUHL; parameters: unit not given here; conditions: code QQ, BHI agar, 35-37° C., 20 to 24 hours
Procedure: as §1, §2, §3

Escherichia coli SS = system: Escherichia coli SS; parameters: unit not given here; conditions: code RR, BHI agar, 35-37° C., 20 to 24 hours
Procedure: as §1, §2, §3

[2] = system: Micrococcus luteus ATCC 9341; parameters: unit not given here; conditions: code OO, BHI agar, 35-37° C., 20 to 24 hours
Procedure: as §1, §2, §3

[3] = system: Mycobacterium smegmatis ATCC 114; parameters: unit not given here; conditions: code UU, BHI agar, 35-37° C., 20 to 24 hours
Procedure: as §1, §2, §3

[4] = system: Nocardia Asteroides ATCC 99700; parameters: unit not given here; conditions: code VV, BHI agar, 35-37° C., 20 to 24 hours
Procedure: as §1, §2, §3

[5] = system: Staphylococcus aureus 1775; parameters: unit not given here; conditions: code GG, BHI agar, 35-37° C., 20 to 24 hours
Procedure: as §1, §2, §3

[6] = system: Staphylococcus aureus A-5177; parameters: unit not given here; conditions: code BB, BHI agar, 35-37° C., 20 to 24 hours
Procedure: as §1, §2, §3

[7] = system: Staphylococcus aureus A-5278; parameters: unit not given here; conditions: code CC, BHI agar, 35-37° C., 20 to 24 hours
Procedure: as §1, §2, §3

[8] = system: Staphylococcus aureus ATCC 6538P; parameters: unit not given here; conditions: code AA, BHI agar, 35-37° C., 20 to 24 hours
Procedure: as §1, §2, §3

[9] = system: Staphylococcus aureus CMX 553; parameters: unit not given here; conditions: code FF, BHI agar, 35-37° C., 20 to 24 hours
Procedure: as §1, §2, §3

[10] = system: Staphylococcus aureus CMX 642A; parameters: unit not given here; conditions: code DD, BHI agar, 35-37° C., 20 to 24 hours
Procedure: as §1, §2, §3

[11] = system: Staphylococcus aureus NCTC 10649M; parameters: unit not given here; conditions: code EE, BHI agar, 35-37° C., 20 to 24 hours
Procedure: as §1, §2, §3

[12] = system: Staphylococcus epidermidis 3519; parameters: unit not given here; conditions: code HH, BHI agar, 35-37° C., 20 to 24 hours
Procedure: as §1, §2, §3

[13] = system: Streptococcus agalactiae CMX 508; parameters: unit not given here; conditions: code KK, BHI agar, 35-37° C., 20 to 24 hours
Procedure: as §1, §2, §3

[14] = system: Streptococcus bovis A-5169; parameters: unit not given here; conditions: code JJ, BHI agar, 35-37° C., 20 to 24 hours
Procedure: as §1, §2, §3

[15] = system: Streptococcus pyogenes 930; parameters: unit not given here; conditions: code MM, BHI agar, 35-37° C., 20 to 24 hours
Procedure: as §1, §2, §3

[16] = system: Streptococcus pyogenes PIU 2548; parameters: unit not given here; conditions: code NN, BHI agar, 35-37° C., 20 to 24 hours
Procedure: as §1, §2, §3

[17] = system: Haemophilis Influenzae DILL AMP R; conditions: code WW, 35-37° C., 20 to 24 hours
Procedure: as §1, §2, §3

[18] = system: Micrococcus luteus ATCC 4698; conditions: code PP, BHI agar, 35-37° C., 20 to 24 hours
Procedure: as §1, §2, §3

[19] = system: Streptococcus Pneumonia 5649; conditions: code ZZA (code list: ZA), 35-37° C., 20 to 24 hours
Procedure: as §1, §2, §3

[20] = system: Streptococcus Pneumonia 5979; conditions: code ZZ, 35-37° C., 20 to 24 hours
Procedure: as §1, §2, §3

[21] = system: Streptococcus Pneumonia ATCC 6303; conditions: code XX, 35-37° C., 20 to 24 hours
Procedure: as §1, §2, §3

[22] = system: Streptococcus Pneumonia GYR 1171; conditions: code YY, 35-37° C., 20 to 24 hours
Procedure: as §1, §2, §3

[23] = system: Streptococcus pyogenes EES61; conditions: code LL, BHI agar, 35-37° C., 20 to 24 hours
Procedure: as §1, §2, §3

SMILES | Antibacterial Activity (MIC) (Candida albicans CCH 442) | Antibacterial Activity (MIC) [1] | Antibacterial Activity (MIC) (Escherichia coli DC-2) | Antibacterial Activity (MIC) (Escherichia coli JUHL) | Antibacterial Activity (MIC) (Escherichia coli SS) | Antibacterial Activity (MIC) [2] | Antibacterial Activity (MIC) [3] | Antibacterial Activity (MIC) [4] | Antibacterial Activity (MIC) [5] | Antibacterial Activity (MIC) [6] | Antibacterial Activity (MIC) [7] | Antibacterial Activity (MIC) [8] | Antibacterial Activity (MIC) [9] | Antibacterial Activity (MIC) [10] | Antibacterial Activity (MIC) [11] | Antibacterial Activity (MIC) [12] | Antibacterial Activity (MIC) [13] | Antibacterial Activity (MIC) [14] | Antibacterial Activity (MIC) [15] | Antibacterial Activity (MIC) [16] | also measured
CCC1OC(=O)C(C)(O)C(=O)C(C)C(OC2OC(C)CC(N(C)C)C2O)C(C)(OCC(O)CO)CC(C)C(=O)C(C)C2NC(=O)OC12C (stereo not drawn) [Example 3, Compound of formula (II): R^a is —CH2CH(OH)CH2OH, R^b is H, Y and Z together are O, T is —NH—, R is —OH] | >100 | 100 | >100 | >100 | 100 | 50 | >100 | >100 | >100 | >100 | >100 | >100 | >100 | >100 | >100 | >100 | 50 | 50 | >100 | >100 | Antibacterial Activity (MIC) [17]: >128; Antibacterial Activity (MIC) [18]: >100; Antibacterial Activity (MIC) [19]: >128; Antibacterial Activity (MIC) [20]: >128; Antibacterial Activity (MIC) [21]: 64; Antibacterial Activity (MIC) [22]: 32; Antibacterial Activity (MIC) [23]: 100
C=CCC1(C)C(=O)OC(CC)C2(C)OC(=O)NC2C(C)C(=O)C(C)CC(C)(OCC=Cc2cnc3ccccc3c2)C(OC2OC(C)CC(N(C)C)C2O)C(C)C1=O (stereo not drawn) [Example 4, Compound of formula (II): R^a is —CH2CH═CH—(3-quinolinyl), R^b is H, Y and Z together are O, T is —NH—, R is —CH2CH═CH2] | >100 | 0.2 | >100 | >100 | 3.1 | 0.1 | 3.1 | 0.1 | >100 | 0.39 | >100 | 0.78 | 0.39 | 0.78 | 0.78 | 0.39 | 0.2 | 0.05 | 12.5 | 0.78 | Antibacterial Activity (MIC) [17]: 16; Antibacterial Activity (MIC) [18]: 0.78; Antibacterial Activity (MIC) [19]: 2; Antibacterial Activity (MIC) [20]: 64; Antibacterial Activity (MIC) [21]: 0.25; Antibacterial Activity (MIC) [22]: 0.25; Antibacterial Activity (MIC) [23]: 0.1
CCC1OC(=O)C(C)(O)C(=O)C(C)C(OC2OC(C)CC(N(C)C)C2O)C(C)(OCC=Cc2cnc3ccccc3c2)CC(C)C(=O)C(C)C2NC(=O)OC12C (stereo not drawn) [Example 8, Compound of formula (II): R^a is —CH2CH═CH—(3-quinolinyl), R^b is H, Y and Z together are O, T is —NH—, R is —OH,] | >100 | 0.2 | >100 | >100 | 0.2 | 0.02 | 3.1 | 0.39 | >100 | 0.39 | >100 | 0.39 | 0.78 | 0.39 | 0.78 | 0.39 | 0.01 | 0.02 | 50 | 0.39 | Antibacterial Activity (MIC) [17]: 16; Antibacterial Activity (MIC) [18]: 0.2; Antibacterial Activity (MIC) [19]: 0.5; Antibacterial Activity (MIC) [20]: 128; Antibacterial Activity (MIC) [21]: 0.03; Antibacterial Activity (MIC) [22]: 0.03; Antibacterial Activity (MIC) [23]: 0.02
